Tests used:
KRas(G12V) = KRas(G12V) (Homo sapiens (Human), UniProt P01116, G12V); assay: KRas(G12V) GDP HTRF (BODIPY-GDP exchange TR-FRET); assay type: biochemical
KRas = KRas (Homo sapiens (Human), UniProt P01116); assay: KRas GDP HTRF (BODIPY-GDP exchange TR-FRET); assay type: biochemical
Method in brief: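 Inhibition of SOS1-mediated exchange of BODIPY-GDP on KRAS G12D, started with 3 nM recombinant human SOS1 and 300 nM BODIPY-GDP and read after 60 min. TR-FRET excitation 337 nm, ratio 520/490 nm ×10,000. IC50 from 4-parameter Hill fit of normalized data.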

SW480 cells = assay: SW480 proliferation assay; assay type: cell-based; settings: Homo sapiens, SW480, SW480; read-out: SW480 Prolif IC50 (G12V)
PC-9 cells = assay: PC9 proliferation assay; assay type: cell-based, human; settings: Homo sapiens, PC-9, PC9; read-out: PC9 Prolif IC50 (G12V)

Sequence of KRas(G12V) (P01116-2 other isoform, or with tags, fused parts or gaps G12V): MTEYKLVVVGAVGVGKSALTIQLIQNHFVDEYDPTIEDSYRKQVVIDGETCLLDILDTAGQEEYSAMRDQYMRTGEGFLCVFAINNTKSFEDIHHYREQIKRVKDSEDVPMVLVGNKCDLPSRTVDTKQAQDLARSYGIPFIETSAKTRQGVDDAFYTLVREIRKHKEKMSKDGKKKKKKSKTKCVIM
Sequence of KRas (P01116-2 other isoform, or with tags, fused parts or gaps): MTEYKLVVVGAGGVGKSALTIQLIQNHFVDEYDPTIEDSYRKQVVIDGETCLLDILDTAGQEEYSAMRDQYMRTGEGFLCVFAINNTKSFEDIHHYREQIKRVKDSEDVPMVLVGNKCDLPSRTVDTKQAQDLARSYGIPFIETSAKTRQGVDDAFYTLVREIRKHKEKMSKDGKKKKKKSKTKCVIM

IC50 (KRas(G12V)) [nM]	IC50 (KRas) [nM]	IC50 (SW480 cells) [nM]	IC50 (PC-9 cells) [nM]	SMILES
0.12	0.33	21	20000	Cc1cc(N)nc(-c2c(Cl)c3c4c(nc(OC[C@@]56CCN5CC(F)(F)C6)nc4c2F)N([C@H](C)c2ccnnc2N)CCO3)c1C(F)(F)F (atropisomer, axis not shown) [Example 77a, 4-((R)-1-((R)-9-(6-amino-4-methyl-3-(trifluoromethyl)pyridin-2-yl)-8-chloro-2-(((S)-3,3-difluoro-1-azabicyclo[3.2.0]heptan-5-yl)methoxy)-10-fluoro-5,6-dihydro-4H-[1,4]oxazepino[5,6,7-de]quinazolin-4-yl)ethyl)pyridazin-3-amine]
0.13	0.34	65	20000	Cc1cc(N)nc(-c2c(Cl)c3c4c(nc(OC[C@]56CCN5CC(F)(F)C6)nc4c2F)N([C@H](C)c2ccnnc2N)CCO3)c1C(F)(F)F (atropisomer, axis not shown) [Example 77b, 4-((R)-1-((R)-9-(6-amino-4-methyl-3-(trifluoromethyl)pyridin-2-yl)-8-chloro-2-(((R)-3,3-difluoro-1-azabicyclo[3.2.0]heptan-5-yl)methoxy)-10-fluoro-5,6-dihydro-4H-[1,4]oxazepino[5,6,7-de]quinazolin-4-yl)ethyl)pyridazin-3-amine]
0.11	0.164	26	6800	Cc1cc(N)nc(-c2c(Cl)c3c4c(nc(OC[C@@]56CCN5CC(F)(F)C6)nc4c2F)N([C@H](C)c2cncnc2N)CCO3)c1C(F)(F)F (atropisomer, axis not shown) [Example 82a, 5-((R)-1-((R)-9-(6-amino-4-methyl-3-(trifluoromethyl)pyridin-2-yl)-8-chloro-2-(((S)-3,3-difluoro-1-azabicyclo[3.2.0]heptan-5-yl)methoxy)-10-fluoro-5,6-dihydro-4H-[1,4]oxazepino[5,6,7-de]quinazolin-4-yl)ethyl)pyrimidin-4-amine]
0.12	0.224	11	7200	Cc1cc(N)nc(-c2c(Cl)c3c4c(nc(OC[C@]56CCN5CC(F)(F)C6)nc4c2F)N([C@H](C)c2cncnc2N)CCO3)c1C(F)(F)F (atropisomer, axis not shown) [Example 82b, 5-((R)-1-((R)-9-(6-amino-4-methyl-3-(trifluoromethyl)pyridin-2-yl)-8-chloro-2-(((R)-3,3-difluoro-1-azabicyclo[3.2.0]heptan-5-yl)methoxy)-10-fluoro-5,6-dihydro-4H-[1,4]oxazepino[5,6,7-de]quinazolin-4-yl)ethyl)pyrimidin-4-amine]
0.19	0.684	23	5900	Cc1cc(N)nc(-c2c(Cl)c3c4c(nc(OC[C@@H]5CC(F)(F)CN5C)nc4c2F)N([C@H](C)c2cncnc2N)CCO3)c1C(F)(F)F (atropisomer, axis not shown) [Example 83a, 5-((R)-1-((R)-9-(6-amino-4-methyl-3-(trifluoromethyl)pyridin-2-yl)-8-chloro-2-(((S)-4,4-difluoro-1-methylpyrrolidin-2-yl)methoxy)-10-fluoro-5,6-dihydro-4H-[1,4]oxazepino[5,6,7-de]quinazolin-4-yl)ethyl)pyrimidin-4-amine]
0.14	0.389	73	12000	Cc1cc(N)nc(-c2c(Cl)c3c4c(nc(OC[C@@H]5CCN5CC(F)F)nc4c2F)N([C@H](C)c2cncnc2N)CCO3)c1C(F)(F)F (atropisomer, axis not shown) [Example 84a, 5-((R)-1-((R)-9-(6-amino-4-methyl-3-(trifluoromethyl)pyridin-2-yl)-8-chloro-2-(((S)-1-(2,2-difluoroethyl)azetidin-2-yl)methoxy)-10-fluoro-5,6-dihydro-4H-[1,4]oxazepino[5,6,7-de]quinazolin-4-yl)ethyl)pyrimidin-4-amine]
		25	7100	Cc1cc(N)nc(-c2c(Cl)c3c4c(nc(OC[C@@]56CCCN5C[C@H](F)C6)nc4c2F)N([C@H](C)c2ccnnc2N)CCO3)c1C(F)(F)F (atropisomer, axis not shown) [Example 133c]

More lines, now with the values behind:

SMILES	IC50 (KRas(G12V)) [nM]	IC50 (KRas) [nM]	IC50 (SW480 cells) [nM]	IC50 (PC-9 cells) [nM]
Cc1cc(N)nc(-c2c(Cl)c3c4c(nc(OC[C@@H]5C[C@@]6(CN5C)CC6(F)F)nc4c2F)N([C@H](C)c2cccnc2N)CCO3)c1C(F)(F)F (atropisomer, axis not shown) [Example 67, 6-((R)-4-((R)-1-(2-aminopyridin-3-yl)ethyl)-8-chloro-2-(((3S,6S)-1,1-difluoro-5-methyl-5-azaspiro[2.4]heptan-6-yl)methoxy)-10-fluoro-5,6-dihydro-4H-[1,4]oxazepino[5,6,7-de]quinazolin-9-yl)-4-methyl-5-(trifluoromethyl)pyridin-2-amine]	0.17	0.55	3.7	2800
Cc1cc(N)nc(-c2c(Cl)c3c4c(nc(OC[C@@H]5C[C@]6(CN5C)CC6(F)F)nc4c2F)N([C@H](C)c2cccnc2N)CCO3)c1C(F)(F)F (atropisomer, axis not shown) [Example 68, 6-((R)-4-((R)-1-(2-aminopyridin-3-yl)ethyl)-8-chloro-2-(((3R,6S)-1,1-difluoro-5-methyl-5-azaspiro[2.4]heptan-6-yl)methoxy)-10-fluoro-5,6-dihydro-4H-[1,4]oxazepino[5,6,7-de]quinazolin-9-yl)-4-methyl-5-(trifluoromethyl)pyridin-2-amine]	0.1	0.31	11	1800
Cc1cc(N)nc(-c2c(Cl)c3c4c(nc(N5CC6(COCCN6)C5)nc4c2F)N([C@H](C)c2cccnc2N)CCO3)c1C(F)(F)F (atropisomer, axis not shown) [Example 90, 6-((R)-4-((R)-1-(2-aminopyridin-3-yl)ethyl)-8-chloro-10-fluoro-2-(8-oxa-2,5-diazaspiro[3.5]nonan-2-yl)-5,6-dihydro-4H-[1,4]oxazepino[5,6,7-de]quinazolin-9-yl)-4-methyl-5-(trifluoromethyl)pyridin-2-amine]	0.22	0.99	390	6400
Cc1cc(N)nc(-c2c(Cl)c3c4c(nc(OCCN5CCOCC5)nc4c2F)N([C@H](C)c2cccnc2N)CCO3)c1C(F)(F)F (atropisomer, axis not shown) [Example 138, 6-((R)-4-((R)-1-(2-aminopyridin-3-yl)ethyl)-8-chloro-10-fluoro-2-(2-morpholinoethoxy)-5,6-dihydro-4H-[1,4]oxazepino[5,6,7-de]quinazolin-9-yl)-4-methyl-5-(trifluoromethyl)pyridin-2-amine]			77	4900
COC1(CCOc2nc3c4c(c(Cl)c(-c5nc(N)cc(C)c5C(F)(F)F)c(F)c4n2)OCCN3[C@H](C)c2cccnc2N)CCC1 (atropisomer, axis not shown) [Example 150, 6-((R)-4-((R)-1-(2-aminopyridin-3-yl)ethyl)-8-chloro-10-fluoro-2-(2-(1-methoxycyclobutyl)ethoxy)-5,6-dihydro-4H-[1,4]oxazepino[5,6,7-de]quinazolin-9-yl)-4-methyl-5-(trifluoromethyl)pyridin-2-amine]			790	8900
Cc1cc(N)nc(-c2c(Cl)c3c4c(nc(OC[C@@]56CCCN5C[C@H](F)C6)nc4c2F)N(Cc2cnc[nH]2)CCO3)c1C(F)(F)F (single isomer, unassigned) [Example 47a]			20000	7100
Cc1cc(N)nc(-c2cc3nc(OC[C@@]45CCCN4CC(F)(F)C5)nc4c3c(c2Cl)OCCN4Cc2cccnc2N)c1C(F)(F)F [Example 34, (S)-6-(4-((2-aminopyridin-3-yl)methyl)-8-chloro-2-((2,2-difluorotetrahydro-1H-pyrrolizin-7a(5H)-yl)methoxy)-5,6-dihydro-4H-[1,4]oxazepino[5,6,7-de]quinazolin-9-yl)-4-methyl-5-(trifluoromethyl)pyridin-2-amine]			820	4000
Cc1cc(N)nc(-c2cc3nc(OCC45COC(C4)C5)nc4c3c(c2Cl)OCCN4Cc2cccnc2N)c1C(F)(F)F [Example 36, 6-(2-((2-oxabicyclo[2.1.1]hexan-4-yl)methoxy)-4-((2-aminopyridin-3-yl)methyl)-8-chloro-5,6-dihydro-4H-[1,4]oxazepino[5,6,7-de]quinazolin-9-yl)-4-methyl-5-(trifluoromethyl)pyridin-2-amine]			8200	20000
Cc1cc(N)nc(-c2cc3nc(OC[C@]45CCCN4CC(F)(F)C5)nc4c3c(c2Cl)OCCN4Cc2cccnc2N)c1C(F)(F)F [Example 50, (R)-6-(4-((2-aminopyridin-3-yl)methyl)-8-chloro-2-((2,2-difluorotetrahydro-1H-pyrrolizin-7a(5H)-yl)methoxy)-5,6-dihydro-4H-[1,4]oxazepino[5,6,7-de]quinazolin-9-yl)-4-methyl-5-(trifluoromethyl)pyridin-2-amine]			930	6700
Cc1cc(N)nc(-c2c(Cl)c3c4c(nc(OCC56CC(CO5)C6)nc4c2F)N([C@H](C)c2cccnc2N)CCO3)c1C(F)(F)F [Example 143, 6-((R)-2-((2-oxabicyclo[2.1.1]hexan-1-yl)methoxy)-4-((R)-1-(2-aminopyridin-3-yl)ethyl)-8-chloro-10-fluoro-5,6-dihydro-4H-[1,4]oxazepino[5,6,7-de]quinazolin-9-yl)-4-methyl-5-(trifluoromethyl)pyridin-2-amine]			94	10000

Reference: patent US20240383915A1, “OXAZEPINE COMPOUNDS AND USES THEREOF IN THE TREATMENT OF CANCER” (Genentech, Inc., priority 2021, published 2024)
